# Laboratory results: patent US4803203A, “Phenyl and heterocyclic piperazinyl alkoxy-benzheterocyclic compounds as antipsychotic agents” (Warner-Lambert Company, priority 1987, dated 1989)
# Read-outs that look alike come from different tables or passages of the source.
# What was measured:
# [1] = test system: spontaneous locomotion (Swiss-Webster male mice); test: Inhibition of locomotor activity-screen fall-off test; type: in vivo, mouse (Swiss-Webster male mice); conditions: Mus musculus, ip, 1 h, intraperitoneal, one hour prior to testing, locomotion accumulated for one hour
# Method: ANIMALS: Nine unfasted Swiss-Webster male mice (Buckberg Labs) weighing 20-30 g are equally divided into three groups for each drug dose to be tested. That is, data for each dose level was generated by three separate groups of three mice each.
# DRUGS: A minimum of three dose levels (10, 30, and 100 mg/kg) are tested for each drug. Treatments are administered intraperitoneally one hour prior to testing. All dosages are calculated as parent compound. Compounds are dissolved or suspended in 0.2% methocel. Control animals are injected with methocel.
# TESTING: A two-part testing procedure is started one hour postinjection. First, the screen test is performed (see Pharmac Biochem Behav 6, 351-353, 1977). Briefly, this test consists of placing mice on individual wire screens which are then rotated 180° at the start of a 60-second observation period. The number of mice falling off the inverted screen is recorded.
# Immediately following the screen test, the final phase of testing is initiated by placing each group of three mice in one actophotometer (Life Sciences, 22, 1067-1076, 1978). The actophotometer consists of a cylindrical chamber whose center is occupied by another cylinder which contains the illumination for six photocells located on the perimeter of the chamber. Six light-beam interruptions equal one count. Locomotor activity is recorded by computer at ten-minute intervals for 60 minutes.
# DATA: The data obtained from the screen test are expressed as percent of mice falling off the screen. Data derived from locomotor activity of drug-treated mice are compared to the activity of vehicle-treated animals and are expressed as percent inhibition of spontaneous locomotion. All percentages reported for inhibition of locomotion are based upon data accumulated for one hour. Both phases of testing are graded: A=60-100%; C=31-59%; and N=0-30%. An overall dose rating is obtained by the following criteria.
# All other combinations = N
# Utilizing this procedure, an overall dose rating of A was obtained for the noted compounds at the indicated dose, ED50 s, as reported in Table 1.
# [2] = target: T1, dopamine receptors (striatal membranes) (Rattus norvegicus, UniProt P61169); test: [^3 H]Haloperidol binding assay; design: species or system rat (Long-Evans hooded rats); conditions: 0.6 nM [^3 H]-haloperidol, pH 7.6, 25° C., 40 minutes
# T1 construct: striatal membranes prepared from Long-Evans hooded rats; from tissue; host or cells: corpus striatum of Long-Evans hooded rats (membrane homogenate)
# Method: The antipsychotic activity of representative compounds of the invention was also established by the [^3 H]haloperidol binding assay method which is described in Mol. Pharmacol. 12, 800 (1976) and reports excellent correlation between the amount of binding and clinical potency.
# [^3 H]Haloperidol Binding Assay. The relative affinities of compounds for dopamine receptors were evaluated on the basis of their ability to displace [^3 H]-haloperidol from striatal membranes prepared from Long-Evans hooded rats. Rats were decapitated; the brains were removed, and the corpus striata were dissected. The corpus striata were homogenized in 40 volumes of […] Tris buffer (pH 7.6) and centrifuged. Pellets were rehomogenized in 50 volumes of the same buffer and used for the binding assay. Incubations were carried out in 10 ml of […] Tris-HCl buffer (pH 7.6) containing 2 mg/ml of original wet tissue weight of homogenate, 100 μl of test agent or solvent, and 0.6 nM of [^3 H]-haloperidol. Nonspecific binding was determined in the presence of 0.1 μM (+)-butaclamol. Samples were incubated in reciprocating water bath at 25° C. for 40 minutes. Incubation was terminated by rapid filtration under reduced pressure through glass fiber filters (Whatman GF/B). The filters were rinsed three times with 10 ml of Tris-HCl buffer. The filters were placed in 10 ml of scintillation cocktail (Beckman Ready-Solv HP) and shaken for one hour. Radioactivity retained on the filter was determined by liquid scintillation spectrophotometry. IC50 s when determined were calculated from a nonlinear computer curve, fit on the data from […], each done in triplicate.
# [3] = rat striatal membranes, read-out: ^3 H-Haloperidol Binding IC50
# [4] = ^3 H-Haloperidol Binding IC50, rat striatal membranes
# T1 sequence (P61169 whole entry): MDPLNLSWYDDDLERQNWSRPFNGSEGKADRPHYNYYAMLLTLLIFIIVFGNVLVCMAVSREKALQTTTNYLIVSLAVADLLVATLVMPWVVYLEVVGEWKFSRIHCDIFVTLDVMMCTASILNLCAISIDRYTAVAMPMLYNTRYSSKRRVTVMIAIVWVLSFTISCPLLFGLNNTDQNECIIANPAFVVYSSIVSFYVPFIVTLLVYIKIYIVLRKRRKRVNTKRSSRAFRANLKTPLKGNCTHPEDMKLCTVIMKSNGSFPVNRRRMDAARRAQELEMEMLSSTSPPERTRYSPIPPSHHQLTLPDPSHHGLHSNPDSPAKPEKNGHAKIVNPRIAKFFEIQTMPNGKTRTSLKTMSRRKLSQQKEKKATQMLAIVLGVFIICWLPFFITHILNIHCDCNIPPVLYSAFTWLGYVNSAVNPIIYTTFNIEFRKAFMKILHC
Structure (SMILES),"IC50 [2, 3] [nM]",ED50 [1] [mg/kg],"IC50 [2, 4] [nM]"
"CC1(C)CC(=O)c2ccc(OCCCN3CC=C(c4ccccc4)CC3)cc2O1 [Example 2A, 7-[3-[3,6-dihydro-4-phenyl-1(2H)-pyridinyl)propoxy]-2,3-dihydro-2,2-dimethyl-4H-benzopyran-4-one]",–,4.8,< 100
O=C1COc2cc(OCCCN3CC=C(c4ccccc4)CC3)ccc21 [Example 2C],–,3.5,< 100
"C1=C(c2ccccc2)CCN(CCCOc2cccc3[nH]ccc23)C1 [Example 2F, 4-[3-(3,6-dihydro-4-phenyl-1(2H)-pyridinyl)propoxy]-1H-indole]",–,2.5,40
"C1=C(c2ccccc2)CCN(CCCCOc2cccc3[nH]ccc23)C1 [Example 2G, 4-[4-(3,6-dihydro-4-phenyl-1(2H)-pyridinyl)butoxy]-1H-indole]",–,1.4,50
"C1=C(c2ccccc2)CCN(CCCCOc2ccc3[nH]ccc3c2)C1 [Example 2H, 5-[4-(3,6-dihydro-4-phenyl-1(2H)-pyridinyl)butoxy]-1H-indole]",–,0.5,10
"C1=C(c2ccccc2)CCN(CCCOc2ccc3cc[nH]c3c2)C1 [Example 2I, 6-[3-(3,6-dihydro-4-phenyl-1(2H)-pyridinyl)propoxy]-1H-indole]",–,2.8,100
"c1cnc(N2CCN(CCCCOc3ccc4ncccc4c3)CC2)nc1 [Example 2L, 6-[4-[4-(2-pyrimidinyl)-1-piperazinyl]butoxy]quinoline]",50,0.9,–
"C1=C(c2ccccc2)CCN(CCCCOc2ccc3ncccc3c2)C1 [Example 2M, 6-[4-(3,6-dihydro-4-phenyl-1(2H)-pyridinyl)butoxy]quinoline]",–,1.1,17
"c1cnc(N2CCN(CCCCOc3cccc4ncccc34)CC2)nc1 [Example 2N, 5-[4-[4-(2-pyrimidinyl)-1-piperazinyl]butoxy]quinoline]",180,–,–
"C1=C(c2ccccc2)CCN(CCCOc2cccc3cnccc23)C1 [Example 2O, 5-[3-(3,6-dihydro-4-phenyl-1(2H)-pyridinyl)propoxy]isoquinoline]",–,0.18,33
"c1cnc(N2CCN(CCCCOc3cccc4ncccc34)CC2)nc1 [Example 2S, 5-[4-[4-(2-pyrimidinyl)-1-piperazinyl]butoxy]quinoline]",184,7.7,–
"c1ccc(N2CCN(CCCOc3ccc4[nH]cnc4c3)CC2)cc1 [Example 3, 5-[3-(4-Phenylpiperazinyl)propyloxy]-1H-benzimidazole]",–,4.9,120
"c1ccc(N2CCN(CCCOc3ccc4ccoc4c3)CC2)cc1 [Example 5, 1-[3-[6-Benzofuranyloxy]propyl]-4-phenylpiperazine]",500,8.8,–

# Second part, led by results:
"IC50 [2, 3] [nM]",Structure (SMILES),ED50 [1] [mg/kg],"IC50 [2, 4] [nM]"
300,"CC1(C)CC(=O)c2ccc(OCCCN3CCN(c4ccccc4)CC3)cc2O1 [Example 1, 2,3-Dihydro-2,2-dimethyl-7-(3-(4-phenyl)-1-piperizinyl)propoxy-4H-benzopyran-4-one]",5.9,–
100,"O=C1COc2cc(OCCCN3CCN(c4ccccc4)CC3)ccc21 [Example 2B, 6-[3-(4-phenyl-1-piperazinyl)propoxy]-3-(2H)-benzofuranone]",3.7,–
70,"c1ccc(N2CCN(CCCOc3ccc4c(c3)OCCC4)CC2)cc1 [Example 2D, 1-[3-[(3,4-dihydro-2H-1-benzopyran-7-yl)oxy]propyl]-4-phenylpiperazine]",2.7,–
1000,"O=C1COc2ccc(OCCCN3CCN(c4ncccn4)CC3)cc2N1 [Example 2E, 6-[3-[4-(2-pyrimidinyl)-1-piperazinyl]propoxy]-2H-1,4-benzoxazine-3(4H)-one]",1,–
200,"c1cnc(N2CCN(CCCOc3ccc4cc[nH]c4c3)CC2)nc1 [Example 2J, 6-[3-[4-(2-pyrimidinyl)-1-piperazinyl]propoxy]-1H-indole]",3.2,–
90,"c1ccc(N2CCN(CCCOc3ccc4ncccc4c3)CC2)cc1 [Example 2K, 6-[3-(4-phenyl-1-piperazinyl)propoxy]-quinoline]",0.5,–
645,"c1ccc(N2CCN(CCCOc3cccc4cnccc34)CC2)nc1 [Example 2P, 5-[3-[4-(2-pyridinyl)-1-piperazinyl]propoxy]isoquinoline]",3,–
206,"c1ccc(N2CCN(CCCOc3cccc4cnccc34)CC2)cc1 [Example 2Q, 5-[3-(4-phenyl-1-piperazinyl)propoxy]isoquinoline]",0.29,–
947,"c1cnc(N2CCN(CCCOc3cccc4cnccc34)CC2)nc1 [Example 2R, 5-[3-[4-(2-pyrimidinyl)-1-piperazinyl]propoxy]isoquinoline]",19.5,–
230,"c1ccc(N2CCN(CCCOc3ccc4cccnc4c3)CC2)nc1 [Example 2T, 7-[3-[4-(2-pyridinyl)-1-piperazinyl]propoxy]quinoline]",0.17,–
50,"c1ccc(N2CCN(CCCOc3ccc4cccnc4c3)CC2)cc1 [Example 2U, 7-[3-(4-phenyl-1-piperazinyl)propoxy]quinoline]",0.1,–
900,"c1cnc(N2CCN(CCCOc3ccc4cccnc4c3)CC2)nc1 [Example 2V, 7-[3-[4-(2-pyrimidinyl)-1-piperazinyl]propoxy]quinoline]",1,–
651,"Oc1nccc2c(OCCCN3CCN(c4ccccn4)CC3)cccc12 [Example 2W, 5-[3-[4-(2-pyridinyl)-1-piperazinyl]propoxy]-1-isoquinolinol]",6.1,–
431,O=C1NCCc2c(OCCCN3CCN(c4ccccn4)CC3)cccc21 [Example 2X],4.4,–
160,"O=C1Cc2cc(OCCCN3CCN(c4ccccc4)CC3)ccc2N1 [Example 4, 1,3-dihydro-5-[3-(4-phenyl-1-piperazinyl)propoxy]-2H-indole-2-one]",0.4,–
